This assay concerns male rhesus monkeys (Macaca mulatta). Description: Cocaine discrimination testing (Study 1), pretreatment protocol. Format: in vivo. As to conditions: cocaine alone. The protocol:
Subjects: The subjects are four male rhesus monkeys (Macaca mulatta), weighing 5.7-8.1 kg and maintained on a diet of 3-4 monkey biscuits and one piece of fresh fruit per day. During the week, all food is delivered after the experimental session, whereas at weekends, food is delivered between 9 a.m. and noon. Water is freely available at all times. The monkeys are housed in a humidity and temperature controlled room with a 12 h light-dark cycle (lights on from 7 a.m. to 7 p.m.). Apparatus: Each monkey is housed individually in a well-ventilated, stainless steel chamber (56×71×69 cm) which includes an operant panel (28×28 cm) mounted on the front wall. Three response keys are arranged in a horizontal row 3.2 cm from the top of the operant panel. Each key can be transilluminated by red or green stimulus lights (Superbright LEDs). An externally mounted pellet dispenser delivers 1 g fruit-flavoured food pellets to a food receptacle beneath the operant response panel. A computer, located in a separate room, controls the operant panels and data collection. […]
During each response period, 3 dependent variables are determined: • 1) Percent injection-appropriate responding prior to delivery of the first reinforcer. • 2) Percent injection-appropriate responding for the entire response period • 3) Response Rate.
Monkeys meeting the following criteria during the training day immediately proceeding the test day and in at least 6 of 7 consecutive training sessions before this are used for discrimination testing: • 1) the percent injection-appropriate responding prior to delivery of the first reinforcer is ≧80% for all cycles; • 2) the percent injection-appropriate responding for the entire cycle is ≧90% for all cycles; • 3) Response rates during saline training cycles are >0.5 responses per second. […] In this protocol, a cumulative dose-effect curve for cocaine (0.013-1.3 mg/kg) is determined either alone or following pretreatment with the test compound, which is administered 20 min before the first dose of cocaine. […]

The text below walks through data of patent US7407990B2, “Therapeutic Agents” (Knoll GmbH, priority 1999, dated 2008).

The structures appear in SMILES notation.

Consider `COC(=O)[C@H]1[C@@H](OC(=O)c2ccccc2)C[C@@H]2CC[C@H]1N2C.Cl` [cocaine, Cocaine hydrochloride], for which the response rates result (1.3 mg/kg) is “usually decreases response rates”. Further, where the note is “cumulative 0.013-1.3 mg/kg, all four monkeys”, the cocaine-appropriate responding result is “dose-dependent increase in cocaine-appropriate responding”. Besides, the “substitution for training stimulus” value (training dose 0.4 mg/kg, all monkeys) was “Complete substitution”.
